According to patent publication US20080139484A1, “1(Beta-D-Glycopyranosyl)-3-Substituted Nitrogenous Heterocyclic Compound, Medicinal Composition Containing the Same, and Medicinal Use Thereof” (KISSEI PHARMACEUTICAL CO., LTD., priority 2004, published 2008):

Experiments:
human SGLT1 = target: T1, human SGLT1 (Homo sapiens, UniProt P13866); assay: Inhibition of methyl-α-D-glucopyranoside (α-MG) uptake in COS-7 cells expressing human SGLT1; type: cell-based; details: COS-7 cells expressing human SGLT1, 1 mM α-MG, 1 hour incubation at 37° C.
T1 construct: expressed in transfected cells; host or cells: COS-7 cells, transient lipofection (Lipofectamine-2000) of pcDNA3.1(-) vector
T1 sequence (P13866 1-664): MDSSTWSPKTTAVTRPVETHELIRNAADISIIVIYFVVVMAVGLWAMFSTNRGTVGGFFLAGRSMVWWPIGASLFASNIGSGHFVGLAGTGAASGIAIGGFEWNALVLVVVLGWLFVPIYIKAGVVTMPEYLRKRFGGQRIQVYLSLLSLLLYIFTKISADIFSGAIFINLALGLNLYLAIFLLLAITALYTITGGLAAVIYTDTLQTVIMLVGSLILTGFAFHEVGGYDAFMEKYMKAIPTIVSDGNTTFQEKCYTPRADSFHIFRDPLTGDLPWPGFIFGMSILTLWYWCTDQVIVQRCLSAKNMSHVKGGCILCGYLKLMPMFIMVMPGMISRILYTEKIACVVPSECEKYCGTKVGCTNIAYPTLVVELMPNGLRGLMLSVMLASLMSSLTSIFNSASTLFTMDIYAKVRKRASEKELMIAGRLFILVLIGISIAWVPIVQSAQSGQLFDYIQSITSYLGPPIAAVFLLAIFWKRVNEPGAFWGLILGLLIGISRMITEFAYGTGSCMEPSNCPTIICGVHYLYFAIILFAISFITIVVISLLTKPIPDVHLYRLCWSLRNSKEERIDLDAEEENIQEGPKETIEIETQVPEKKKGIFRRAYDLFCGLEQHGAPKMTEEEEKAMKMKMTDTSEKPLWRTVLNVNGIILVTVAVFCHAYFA
Procedure: (§1) Assay for Inhibitory Effects on Human SGLT Activity
(§2) The cDNA library was prepared for PCR amplification by reverse transcription from total RNA deprived from human small intestine (Ori gene) using oligo-dT as a primer. Using this cDNA library as a template, the DNA fragment coding 1 to 2005 bp of human SGLT1 (ACCESSION: M24847), which was reported by Hediger et al., was amplified by PCR method and inserted into the multi-cloning site of pcDNA3.1(−) (Invitrogen). The DNA sequence inserted was perfectly matched to the previously reported sequence.
(§3) The vector expressing human SGLT1 or SGLT2 was transfected into COS-7 cells by lipofection method (Lipofectamine-2000: Invitrogen). First, COS-7 cells were plated 5×10^4 cells/100 μL/well on 96-wells plate and incubated at 37° C. for 2 hours. In addition, per 50 μL medium, 0.3 μg of human SGLT1 or SGLT2 expression vector was mixed with 0.5 μL of Lipofectamine-2000 and the complex solution was prepared. Fifty μL/well of this complex solution was added to COS-7 cells, previously described, and the plate was mixed gently and was used for uptake assay after 2 days culture.
A mixture of non-labeled (Sigma) and ^14C-labeled α-MG (Amersham Pharmacia Biotech) was added to the uptake buffer (pH 7.4; containing 140 mM sodium chloride, 2 mM potassium chloride, 1 mM calcium chloride, 1 mM magnesium chloride, 10 mM 2-[4-(2-hydroxyethyl)-1-piperazinyl]ethane sulfonic acid and 5 mM tris(hydroxymethyl)aminomethane) at the final concentration of 1 mM. A test compound was dissolved in dimethyl sulfoxide, and then appropriately diluted with distilled water. The test compound solution was added to the uptake buffer containing 1 mM α-MG, and designated as a measurement buffer. For the control group, the measurement buffer without any test compound was prepared. For measuring the basal uptake, a basal uptake measurement buffer, which contains 140 mM chorine chloride instead of sodium chloride, was prepared. After removing the culture medium of cells expressing human SGLT1 or human SGLT2, 180 μL of the pre-treatment buffer (the basal uptake buffer without α-MG) was added to each well and incubated at 37° C. for 10 minutes. After repeating the same treatment, the pre-treatment buffer was removed, and then 75 μL per well of the measurement buffer or the basal uptake buffer was added and the cells were incubated at 37° C. […] Radioactivity was measured by means of micro-scintillation counter TopCount (Packard). One hundred % was set to the difference between the uptake in the control group and the basal uptake, and the uptake of methyl α-D-glucopyranoside at each drug concentration was calculated. […]

[1] = Test Example 2: effect on urinary glucose excretion; type: in vivo; details: overnight fasted male SD rats, 7 weeks of age, 1 mg/kg intravenously (3 mL/kg), urine collected for 24 hours
Procedure: As experimental animals, overnight fasted SD rats (CHARLES RIVER LABORATORIES JAPAN. Inc., Crj:CD(SD(IGS), male, 7 weeks of age, 200-230 g) were used.
Example 10 compound of 2.12 mg was dissolved by adding 636 μL of ethanol and 2544 μL of polyethylene glycol 400. And then the solution was mixed with 3180 μL of saline and sonicated. Example 12 compound of 2.18 mg was dissolved by adding 654 μL of ethanol and 2616 μL of polyethylene glycol 400. And then the solution was mixed with 3270 μL of saline and sonicated. These test compound solutions of 0.33 mg/mL were used for administration.
The body weights of rats were measured and the solution of the test compound was intravenously injected to the tail vein of rats at the dose of 3 mL/kg (1 mg/kg as test compound). Collection of urine was performed for 24 hours after the administration. […]
Frozen samples were thawed and mixed well. According to need, a part of samples was diluted with distilled water and the glucose concentration of these samples was measured with a kit for laboratory test: Glucose CII-Test WAKO (Wako Pure Chemical Industries, Ltd.).
The amounts of urinary glucose excretion per 200 g of body weight were calculated from glucose concentration of urinary samples, dilution factor, urinary volume and body weight using the following equation. […]

human SGLT2 = target: T2, human SGLT2 (Homo sapiens, UniProt P31639); assay: Inhibition of methyl-α-D-glucopyranoside (α-MG) uptake in COS-7 cells expressing human SGLT2; type: cell-based; details: COS-7 cells expressing human SGLT2, 1 mM α-MG, 1 hour incubation at 37° C.
T2 construct: expressed in transfected cells; host or cells: COS-7 cells, transient lipofection (Lipofectamine-2000) of pcDNA3.1(-) vector
T2 sequence (P31639 1-672): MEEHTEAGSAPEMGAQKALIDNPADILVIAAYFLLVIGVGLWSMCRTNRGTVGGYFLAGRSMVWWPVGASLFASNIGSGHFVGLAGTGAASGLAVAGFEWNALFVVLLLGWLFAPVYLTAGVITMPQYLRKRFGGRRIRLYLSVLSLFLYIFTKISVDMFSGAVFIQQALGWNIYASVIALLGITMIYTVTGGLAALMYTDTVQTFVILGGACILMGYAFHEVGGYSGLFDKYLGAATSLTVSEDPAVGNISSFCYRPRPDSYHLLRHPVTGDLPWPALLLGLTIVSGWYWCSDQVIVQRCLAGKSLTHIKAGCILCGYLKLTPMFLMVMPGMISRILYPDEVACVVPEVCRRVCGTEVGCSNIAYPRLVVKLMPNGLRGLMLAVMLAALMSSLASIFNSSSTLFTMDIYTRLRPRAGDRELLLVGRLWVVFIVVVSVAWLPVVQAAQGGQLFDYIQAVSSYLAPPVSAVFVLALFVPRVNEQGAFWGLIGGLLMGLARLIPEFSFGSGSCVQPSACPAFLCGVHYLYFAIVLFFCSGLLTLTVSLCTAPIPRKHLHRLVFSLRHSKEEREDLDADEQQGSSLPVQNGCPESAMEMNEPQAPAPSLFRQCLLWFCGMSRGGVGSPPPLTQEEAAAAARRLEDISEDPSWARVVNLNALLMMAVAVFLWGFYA
Procedure: as §1
as §2, with “human kidney” for “human small intestine”, “coding 2” for “coding 1”, “to 2039” for “to 2005”, “human SGLT2” for “human SGLT1”, “(ACCESSION: M95549, M95299),” for “(ACCESSION: M24847),”, “by R. G. Wells” for “by Hediger”
as §3
A mixture of non-labeled (Sigma) and ^14C-labeled α-MG (Amersham Pharmacia Biotech) was added to the uptake buffer (pH 7.4; containing 140 mM sodium chloride, 2 mM potassium chloride, 1 mM calcium chloride, 1 mM magnesium chloride, 10 mM 2-[4-(2-hydroxyethyl)-1-piperazinyl]ethane sulfonic acid and 5 mM tris(hydroxymethyl)aminomethane) at the final concentration of 1 mM. A test compound was dissolved in dimethyl sulfoxide, and then appropriately diluted with distilled water. The test compound solution was added to the uptake buffer containing 1 mM α-MG, and designated as a measurement buffer. For the control group, the measurement buffer without any test compound was prepared. For measuring the basal uptake, a basal uptake measurement buffer, which contains 140 mM chorine chloride instead of sodium chloride, was prepared. After removing the culture medium of cells expressing human SGLT1 or human SGLT2, 180 μL of the pre-treatment buffer (the basal uptake buffer without α-MG) was added to each well and incubated at 37° C. for 10 minutes. After repeating the same treatment, the pre-treatment buffer was removed, and then 75 μL per well of the measurement buffer or the basal uptake buffer was added and the cells were incubated at 37° C. After 1 hour incubation, the measurement buffer was removed and the cells were washed twice with 180 μL per well of the washing buffer (the basal uptake buffer containing 10 mM non-labeled α-MG). The cells were solubilized by 75 μL per well of 0.2 mol/L sodium hydroxide, and then the cell lysates were transferred into PicoPlates (Packard). One hundred fifty μL of Microscint-40 (Packard) was added to the wells and mixed. Radioactivity was measured by means of micro-scintillation counter TopCount (Packard). One hundred % was set to the difference between the uptake in the control group and the basal uptake, and the uptake of methyl α-D-glucopyranoside at each drug concentration was calculated. The drug concentration, at which 50% uptake of methyl α-D-glucopyranoside was inhibited (IC50 value), was calculated using logit plot. The blanks in the Table are untested.

[2] = Test Example 3: effect on urinary glucose excretion; type: in vivo; details: overnight fasted male SD rats, 9 weeks of age, 1 mg/kg intravenously (2 mL/kg), urine collected for 24 hours
Procedure: As experimental animals, overnight fasted SD rats (CHARLES RIVER LABORATORIES JAPAN. Inc., Crj:CD(SD)IGS, male, 9 weeks of age, 300-330 g) were used.
Example 346 compound of 2.90 mg was dissolved by adding 29.0 μL of dimethyl sulfoxide and 2320 μL of polyethylene glycol 400. And then, the solution was mixed with 3450 μL of saline. This 0.5 mg/mL solution was used for administration.
Rats were fasted for overnight. The body weights of rats were measured and urinary glucose excretions were calculated as with the Test Example 2 except for intravenously injection to the tail veins of rats at the dose of 2 mL/kg (1 mg/kg as test compound).

[3] = Test Example 4: inhibitory effects on blood glucose level increase, liquid meal tolerance test in diabetic rats; type: in vivo; details: streptozotocin diabetic rats, 2 mg/kg orally, liquid meal load, mean ± S.E.
Procedure: Rats, aged 8 weeks old, were injected streptozotocin (45 mg/kg) intravenously from tail vain. After 1 week, rats were fasted overnight and then glucose tolerance test (2 g/kg) was performed.
After overnight fasted, the diabetic rats were or ally administered a test compound (2 mg/kg), which was dissolved in distilled water, in the drug-treating group, or distilled water alone in a control group. Immediately after the compound administration, 3 mL/body of liquid meal (No. 038, Control diet, assorted with dextrin and maltose; Oriental Yeast Co., Ltd., prepared for 323 g/L) was loaded or ally. The blood was collected from tail artery immediately before and after administration with the time course, and treated with heparin immediately. The blood was centrifuged, and the plasma was collected and quantified the plasma glucose concentration by glucose oxidase method. The values in the Table are presented as the mean ±S.E.

SMILES | IC50 (human SGLT1) [nM] | IC50 (human SGLT2) [nM] | also measured
Cc1cccc2c1c(Cc1ccc(CCCC(=O)NC(C)(C)C(=O)N3CCNCC3)cc1)cn2[C@@H]1O[C@H](CO)[C@@H](O)[C@H](O)[C@H]1O [Example 329, 1-(β-D-Glucopyranosyl)-3-(4-[3-{1-(piperazin-1-yl-carbonyl)-1-(methyl)ethylcarbamoyl}propyl]phenyl)methyl-4-methyl-1H-indole] | 41 | – | –
CCc1ccc(Cc2cn([C@@H]3O[C@H](CO)[C@@H](O)[C@H](O)[C@H]3O)c3ccccc23)cc1 [Example 10] | – | 0.5 | Amount of urinary excretion of glucose in 24 hours [1]: 11.2 mg/200 g body weight
COc1ccc(Cc2cn([C@@H]3O[C@H](CO)[C@@H](O)[C@H](O)[C@H]3O)c3cccc(C)c23)cc1 [Example 8] | 10 | 0.6 | –
COc1ccc(Cc2cn([C@@H]3O[C@H](CO)[C@@H](O)[C@H](O)[C@H]3O)c3cc(C)ccc23)cc1 [Example 12, 1-(β-D-glucopyranosyl)-3-(4-methoxybenzyl)-6-methyl-1H-indole] | 3200 | 0.9 | Amount of urinary excretion of glucose in 24 hours [1]: 111.8 mg/200 g body weight
COc1ccc(Cc2cn([C@@H]3O[C@H](CO)[C@@H](O)[C@H](O)[C@H]3O)c3ccccc23)c(F)c1 [Example 15] | – | 11 | –
COc1ccc(Sc2cn([C@@H]3O[C@H](CO)[C@@H](O)[C@H](O)[C@H]3O)c3cc(C)ccc23)cc1 [Example 346, 1-(β-D-Glucopyranosyl)-3-{(4-methoxyphenyl)sulfany}-6-methyl-1H-indole] | – | 0.4 | Amount of urinary excretion of glucose in 24 hours [2]: 33.12 mg/200 g body weight
CCOC(=O)[C@H](CO)NC(=O)CCCc1ccc(Cc2cn([C@@H]3O[C@H](CO)[C@@H](O)[C@H](O)[C@H]3O)c3cccc(C)c23)cc1 [Example 320] | – | – | Plasma glucose concentration 0.5 h ([3]; 0.5 hour after administration): 230 ± 14 mg/dL; Plasma glucose concentration 1 h ([3]; 1 hour after administration): 312 ± 15 mg/dL; Plasma glucose concentration 0 h ([3]; pretreatment (0 h)): 133 ± 10 mg/dL
Cc1cccc2c1c(Cc1ccc(OCCCNCCC(N)=O)cc1)cn2[C@@H]1O[C@H](CO)[C@@H](O)[C@H](O)[C@H]1O [Example 318, 3-[(4-{3-[2-(Carbamoyl)ethylamino]propoxy}phenyl)methyl]-1-(β-D-glucopyranosyl)-4-methyl-1H-indole] | 122 | – | –
